Experimental data taken from US20190315823A1, “SMALL CATIONIC ANTI-BIOFILM AND IDR PEPTIDES” (priority 2013, published 2019).
Read-outs that look alike come from different tables or passages of the source. Marks after values point to notes of the source that are not given here. Ends that are not written are not given here. Peptide text beside a SMILES is read from it.

What was measured:
[1] = system: LPS-stimulated human peripheral blood mononuclear cells (IL1-β); assay type: cell-based; settings: cells stimulated with 10 ng/ml LPS; for IL1β Production (pg/ml): LPS alone 984 pg/ml, starred values (1002-2013) determined separately, LPS alone 889 pg/ml; for IL1β Production: LPS alone 1313 (HH2 derivatives), 1927 (1018 derivatives), 2455 (1002 and hybrid peptides) pg/ml
[2] = system: human peripheral blood mononuclear cells (MCP-1); assay: SPOT-synthesized derivative screen: production of chemokine MCP-1; assay type: cell-based; settings: No LPS
Procedure, shortened: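 MCP-1 was quantified by capture ELISA in cleared culture supernatants of treated human peripheral blood mononuclear cells. Cells came from heparinized volunteer blood via Ficoll gradient and were seeded at 0.75 to 1×10^6 cells/ml (37 °C, 5% CO2).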

[3] = system: P. aeruginosa biofilm; assay type: cell-based; settings: biofilm
Method: Methods of assessment of anti-biofilm activity—Biofilm formation was initially analyzed using a static abiotic solid surface assay as described elsewhere (de la Fuente-Nunez et al., 2012). […] Planktonic cells were removed, biofilm cells adhering to the side of the tubes were stained with crystal violet, and absorbance at 595 nm was measured using a microtiter plate reader (Bio-Tek Instruments Inc., United States). Some peptides were screened against two Gram negative organisms, P. aeruginosa and K. pneumoniae using a Bioflux apparatus (AutoMate Scientific, Berkeley, Calif.; http://www.autom8.com/bioflux_biofilm.html), which allows for the high-throughput, real-time analysis of biofilms.

[4] = system: S. aureus biofilms; assay: checkerboard titration biofilm synergy (MBIC, FIC); assay type: cell-based
Method: Peptides and various conventional antibiotics were analyzed by checkerboard titration into microtiter trays using CLSI methods (Wiegand, I., K. Hilpert, and R. E. W. Hancock. 2008. Nature Protocols 3:163-175), bacteria added and, after overnight incubation at 37° C., the residual biofilm assessed by the crystal violet method mentioned in the body of the grant, with an A595 of 0.2 considered as 100% biofilm inhibition. The effects of the peptide in reducing the minimal biofilm inhibitory concentration (MBIC) of the antibiotic and vice versa were assessed using the Fractional Inhibitory Concentration (FIC) method whereby ΣFTC=FICA+FICB=(CA/MICA)+(CB/MICB), where MBICA and MBICB are the MBICs of peptide A and antibiotic B alone, respectively, and CA and CB (expressed in μg/ml) are the MICs of the drugs in combination. This conventional clinical microbiology assay is interpreted as follows

[5] = system: methicillin resistant Staphylococcus aureus (MRSA) biofilm; settings: approximate peptide concentration […] (around 3 μg/ml); compared to untreated samples
Procedure, shortened: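 Peptide was present from inoculation onward, with bacteria seeded at 1/100 from overnight cultures into BM2 biofilm medium or Luria Broth. Crystal violet staining of surface-attached cells (A595) quantified biofilm reduction at 22–46 h. K. pneumoniae was additionally screened in a real-time Bioflux flow device for some peptides.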

[6] = Table 12A, 1002-2013 compared to LPS control of 889 pg/ml
[7] = Table 12A, background subtracted (21.3 pg/ml)
[8] = Table 12, human PBMC, peptide at ~18-24 μM
[9] = Table 12, human PBMC, peptide at ~18-24 μM, background subtracted 139 (HH2 derivatives), 170 (1018 derivatives), 242 (1002 and hybrid peptides) pg/ml

Molecule: CC[C@H](C)[C@H](NC(=O)[C@H](CCCNC(=N)N)NC(=O)[C@H](CC(C)C)NC(=O)[C@H](CCC(N)=O)NC(=O)[C@@H](N)C(C)C)C(=O)N[C@@H](CCCNC(=N)N)C(=O)N[C@H](C(=O)N[C@@H](CCCCN)C(=O)N[C@H](C(=O)N[C@H](C(=O)N[C@@H](CCCNC(=N)N)C(=O)N[C@@H](CCCCN)C(N)=O)[C@@H](C)CC)C(C)C)C(C)C [Peptide 2011] (H-VQLRIRVKVIRK-NH2; N-terminus assumed)
- Fold change in IL1β relative to no peptide LPS stimulated cells [1, 6]: 0.62
- IL1β Production (pg/ml) ([1]; Table 12A): 550* pg/ml
- Fold increase in MCP1 cf. untreated cells ([2]; Table 12A): 38
- MCP1 [2, 7]: 796 pg/mL
- MBIC50 P. aeruginosa [3]: 10 µg/mL

Molecule: CC[C@H](C)[C@H](NC(=O)[C@H](CCCNC(=N)N)NC(=O)[C@H](Cc1c[nH]c2ccccc12)NC(=O)[C@@H](NC(=O)[C@@H](NC(=O)[C@H](CC(C)C)NC(=O)[C@H](Cc1c[nH]c2ccccc12)NC(=O)[C@H](CCCNC(=N)N)NC(=O)[C@H](CCC(N)=O)NC(=O)[C@@H](N)C(C)C)[C@@H](C)CC)C(C)C)C(=O)N[C@@H](CCCNC(=N)N)C(=O)N[C@@H](CCCCN)C(N)=O [Peptide 1002] (H-VQRWLIVWRIRK-NH2; N-terminus assumed)
- Fold change in IL1β relative to no peptide LPS stimulated cells ([1]; Table 12): 0.05
- IL1β Production ([1]; Table 12): 127 pg/mL
- Fold change in IL1β relative to no peptide LPS stimulated cells [1, 6]: 0.13
- IL1β Production (pg/ml) ([1]; Table 12A): 111* pg/ml
- Fold increase in MCP1 cf. untreated cells [2, 8]: 3.5
- MCP1 [2, 9]: 603.2 pg/mL
- Fold increase in MCP1 cf. untreated cells ([2]; Table 12A): 576
- MCP1 [2, 7]: 11994 pg/mL
- MBIC50 P. aeruginosa [3]: 5 µg/mL

Molecule: CN[C@H](CC(C)C)C(=O)N[C@H]1C(=O)N[C@@H](CC(N)=O)C(=O)N[C@H]2C(=O)N[C@H]3C(=O)N[C@H](C(=O)N[C@H](C(=O)O)c4cc(O)cc(O)c4-c4cc3ccc4O)[C@H](O)c3ccc(c(Cl)c3)Oc3cc2cc(c3O[C@@H]2O[C@H](CO)[C@@H](O)[C@H](O)[C@H]2O[C@H]2C[C@](C)(N)[C@H](O)[C@H](C)O2)Oc2ccc(cc2Cl)[C@H]1O [Vancomycin]
- FIC ([4]; antibiotic in combination with peptide DJK6): 0.4
- Fold decrease in antibiotic concentration ([4]; in the presence of peptide DJK6): 16

Molecule: 1002-L4: single substituted 1002 peptide (VQRLLIVWRIRK-NH2) [Peptide 1002-L4]
- Fold change in IL1β relative to no peptide LPS stimulated cells ([1]; Table 12): 0.12
- IL1β Production ([1]; Table 12): 283 pg/mL
- % Biofilm inhibition [5]: 33%
- Fold increase in MCP1 cf. untreated cells [2, 8]: 3.0
- MCP1 [2, 9]: 493.6 pg/mL

Molecule: 1018-W3: single substituted 1018 peptide (VRWIVAVRIWRR-NH2) [Peptide 1018-W3]
- Fold change in IL1β relative to no peptide LPS stimulated cells ([1]; Table 12): 0.10
- IL1β Production ([1]; Table 12): 127 pg/mL
- % Biofilm inhibition [5]: 66%
- Fold increase in MCP1 cf. untreated cells [2, 8]: 6.6
- MCP1 [2, 9]: 953 pg/mL

Molecule: 1002-A11: single substituted 1002 peptide (VQRWLIVWRIAK-NH2) [Peptide 1002-A11]
- Fold change in IL1β relative to no peptide LPS stimulated cells ([1]; Table 12): 0.05
- IL1β Production ([1]; Table 12): 127 pg/mL
- % Biofilm inhibition [5]: 52%
- Fold increase in MCP1 cf. untreated cells [2, 8]: 3.0
- MCP1 [2, 9]: 485.3 pg/mL

Molecule: 1018-A8: single substituted 1018 peptide (VRLIVAVAIWRR-NH2) [Peptide 1018-A8]
- Fold change in IL1β relative to no peptide LPS stimulated cells ([1]; Table 12): 0.10
- IL1β Production ([1]; Table 12): 127 pg/mL
- % Biofilm inhibition [5]: 60%
- Fold increase in MCP1 cf. untreated cells [2, 8]: 3.7
- MCP1 [2, 9]: 460 pg/mL

Molecule: 1002-G12: single substituted 1002 peptide (VQRWLIVWRIRG-NH2) [Peptide 1002-G12]
- Fold change in IL1β relative to no peptide LPS stimulated cells ([1]; Table 12): 0.10
- IL1β Production ([1]; Table 12): 240 pg/mL
- % Biofilm inhibition [5]: 50%
- Fold increase in MCP1 cf. untreated cells [2, 8]: 0.9
- MCP1 [2, 9]: -36.2 pg/mL

Molecule: 1018-I7: single substituted 1018 peptide (VRLIVAIRIWRR-NH2) [Peptide 1018-I7]
- Fold change in IL1β relative to no peptide LPS stimulated cells ([1]; Table 12): 0.10
- IL1β Production ([1]; Table 12): 127 pg/mL
- % Biofilm inhibition [5]: 63%
- Fold increase in MCP1 cf. untreated cells [2, 8]: 5.2
- MCP1 [2, 9]: 714 pg/mL

Molecule: HH2-A10: single substituted HH2 peptide (VQLRIRVAVARA-NH2)
- Fold change in IL1β relative to no peptide LPS stimulated cells ([1]; Table 12): 1.70
- IL1β Production ([1]; Table 12): 2234 pg/mL
- % Biofilm inhibition [5]: 53%
- Fold increase in MCP1 cf. untreated cells [2, 8]: 2.5
- MCP1 [2, 9]: 258 pg/mL
